This is an account of results in PMC9608462 (Molecules, 2022).

One assay deals with Ishikawa cells. Briefly: Ishikawa cells proliferation (alkaline phosphatase activity). It counts as cell-based, human. The following applies: for alkaline phosphatase activity of Ishikawa cells: 10^3–10^4 nM; for alkaline phosphatase activity of Ishikawa cells / alkaline phosphatase activity / proliferation of Ishikawa cells: 72 h; for alkaline phosphatase activity / proliferation of Ishikawa cells: 10–100 nM. On the procedure:
The estrogen-stimulated proliferation of Ishikawa cells was performed according to Wober and coworkers with some modifications: Ishikawa cells were seeded at a density of 5 × 10^3 cells/well in 96-well plates in phenol red-free DMEM/F12 containing 10% charcoal dextran-treated FBS. After 72 h, cells were washed with PBS and kept in the same media for the next 24 h. Then, the medium was changed, and cells were incubated with the tested compounds at concentrations ranging from 10^1 to 10^4 nM for 72 h. As a positive control, E2 at a concentration of 1 nM was used. […] The treated cells were grown for 72 h. The estrogenic stimulation was evaluated by alkaline phosphatase activity. After incubation, the cells were washed with PBS, and the plates were frozen at −20 °C until analysis. After thawing, the plates were warmed in a water bath up to 22 °C and incubated with the p-Nitrophenyl Phosphate Liquid Substrate System (Sigma-Aldrich). This ready-to-use, single-solution reagent contains p-nitrophenyl phosphate, buffer and the necessary magnesium cations. Alkaline phosphatase releases p-nitrophenol, measured kinetically at 405 nm using plate reader Biotek Instruments, Elx-800, Winooski, VT, USA).

For another assay, the target named is T1, human ERα (Homo sapiens, UniProt P03372).
T1 construct: purchased Panvera (Göttingen, Germany)
T1 sequence (P03372 1-595): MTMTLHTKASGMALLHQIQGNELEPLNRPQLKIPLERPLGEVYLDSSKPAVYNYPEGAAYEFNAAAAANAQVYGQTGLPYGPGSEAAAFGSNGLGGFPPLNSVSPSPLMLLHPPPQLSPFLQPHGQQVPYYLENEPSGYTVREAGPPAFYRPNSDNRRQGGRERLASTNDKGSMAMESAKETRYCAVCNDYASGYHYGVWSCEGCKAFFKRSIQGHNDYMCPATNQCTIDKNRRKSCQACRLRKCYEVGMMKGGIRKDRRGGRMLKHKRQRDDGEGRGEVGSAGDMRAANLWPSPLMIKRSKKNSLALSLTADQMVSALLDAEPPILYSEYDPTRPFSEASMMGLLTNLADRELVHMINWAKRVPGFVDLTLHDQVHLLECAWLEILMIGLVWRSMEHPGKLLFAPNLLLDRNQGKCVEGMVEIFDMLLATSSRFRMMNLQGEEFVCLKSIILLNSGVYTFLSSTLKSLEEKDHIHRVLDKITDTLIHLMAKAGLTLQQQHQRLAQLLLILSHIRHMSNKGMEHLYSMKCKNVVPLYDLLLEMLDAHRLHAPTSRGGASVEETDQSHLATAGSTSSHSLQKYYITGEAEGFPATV
The assay can be described thus: Fluorescence polarization ER/D22 coactivator-peptide assay, ERα. Type of assay: biochemical. The note with it: for agonistic/antagonistic activity for ERα: fluorescence polarisation, recombinant receptor; for EC50: recombinant human ERα, D22 peptide, 1 h. On the procedure:
(§1) Binding affinities to ERα and ERβ were determined by the dose dependence binding of the test compounds with purified human Erα and Erβ. All chemicals were obtained from Panvera (Göttingen, Germany). The assay was performed according to the protocols recommended by the manufacturer. […] D22 is a coactivator-like peptide containing an LXXLL motif and flanking sequences that resemble known coactivators. Agonist-bound ER (ERα or ERβ) can recruit D22, resulting in a more significant fraction of bound D22 and a larger polarization value. Antagonist-bound ER has a lower affinity for D22, yielding a more significant fraction of unbound D22 and a lower polarization value. Recombinant human ERα or ERβ were incubated with the tested compounds for one hour. Fluorescence polarization was measured using a Tecan Ultra Evolution multiwell plate reader (Tecan, Crailsheim, Germany) at excitation wavelength 540 nm and emission wavelength 580 nm. […] The EC50 values were derived by logarithmic curve-fitting from binding curves using GraphPad Prism 8.4.3. GraphPad Software, San Diego, California, USA. EC50 was determined from at least three independent experiments.
(In general: In fluorescence polarisation assays a small probe gives low polarisation when free and higher when bound to something large.)

The target in the next assay is T2, human ERβ (Homo sapiens, UniProt Q92731).
T2 construct: purchased Panvera (Göttingen, Germany)
Briefly: Fluorescence polarization ER/D22 coactivator-peptide assay, ERβ. It counts as biochemical. The note with it: for agonistic/antagonistic activity for ERβ: fluorescence polarisation, recombinant receptor; for EC50: recombinant human ERβ, D22 peptide, 1 h. The protocol:
as §1

Another assay relates to MCF-7 cells. Briefly: MCF-7 cells proliferation (Hoechst 33258 DNA fluorescence). It counts as cell-based, human. The note with it: for DNA level / DNA synthesis of MCF-7 cells: 10^3–10^4 nM. The protocol: The estrogen-stimulated proliferation of MCF-7 cells was performed using Hoechst 33258 DNA staining. […] After 24 h, cells were washed with PBS and kept in the same media for the next 48 h. Then, cells were incubated with tested compounds at concentrations ranging from 10^1 to 10^4 nM for 96 h. E2 at 1 nM and 10 nM was used as a positive control. […] Proliferation was assessed by the fluorometric measurement of DNA. For this purpose, cells were washed with PBS, lysed using EDTA (0.5 mL, […], pH 12.3) at 37 °C for 30 min and neutralized with 10 mM KH2PO4, and then, Hoechst 33258 (1 mg/mL) was added. Excitation at 350 nm and emission at 455 nm was used for fluorescence measurement using Tecan Infinite M Plex microplate reader (Männedorf, Switzerland).

The test system of assay [1] is human endometrial adenocarcinoma cells (Ishikawa). The following applies: E2-induced; cited from earlier work.
For assay [2] the test system is unchanged. The following applies: read-out: IC50, suppression of E2-induced expression of alkaline phosphatase; cited from earlier work.
Assay [3] concerns MCF-7 cells transfected with luciferase reporter gene. The note with it: read-out: EC50 of luciferase expression; cited from earlier work.
[4] abbreviates: 100–1000 nM (as in conclusions).

Where two headings read alike, the source gives them in different places.

T2 sequence (Q92731 whole entry): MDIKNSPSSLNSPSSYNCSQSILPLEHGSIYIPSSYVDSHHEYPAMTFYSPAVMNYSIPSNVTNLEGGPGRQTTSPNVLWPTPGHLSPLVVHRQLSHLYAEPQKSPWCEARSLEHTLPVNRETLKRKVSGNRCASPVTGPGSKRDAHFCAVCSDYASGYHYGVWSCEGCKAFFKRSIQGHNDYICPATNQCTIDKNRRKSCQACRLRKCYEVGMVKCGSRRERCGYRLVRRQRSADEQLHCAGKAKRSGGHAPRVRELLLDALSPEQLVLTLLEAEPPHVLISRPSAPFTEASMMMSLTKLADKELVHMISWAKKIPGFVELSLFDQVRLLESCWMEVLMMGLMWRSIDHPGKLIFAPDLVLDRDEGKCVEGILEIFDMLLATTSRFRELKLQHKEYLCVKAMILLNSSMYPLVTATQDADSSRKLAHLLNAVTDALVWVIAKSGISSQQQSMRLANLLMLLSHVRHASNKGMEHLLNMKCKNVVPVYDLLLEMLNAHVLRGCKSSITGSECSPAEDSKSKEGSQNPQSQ

Broadly, the EC50 is the midpoint of the concentration-response curve. With `Oc1ccc(C=Cc2cc(O)c(O)c(O)c2)cc1` [Compound M8, 3,4,4′,5-tetrahydroxystilbene], the “alkaline phosphatase activity of Ishikawa cells” value with Ishikawa cells was “significantly lower compared with the control”. Besides, in the assay on Ishikawa cells, the “alkaline phosphatase activity / proliferation of Ishikawa cells” value is on record as “stimulated the alkaline phosphatase”. Besides, the “agonistic/antagonistic activity for ERα” value on human ERα is “agonistic activity”. For the same compound, the EC50 on human ERα (read-out: ERα Agonist EC50) came to 108 ± 10.2 nM; on human ERβ (read-out: ERβ Agonist EC50), 8.1 ± 1.6 nM. At human ERβ, the “agonistic/antagonistic activity for ERβ” value is reported as “could act as ERβ agonists”. Further, the “DNA level / DNA synthesis of MCF-7 cells” value in the assay on MCF-7 cells is reported as “increased DNA synthesis”.

Consider `Oc1cc(O)cc(C=Cc2cc(O)c(O)c(O)c2)c1` [Compound M11, 3,3′,4,5,5′-pentahydroxystilbene], for which the “alkaline phosphatase activity of Ishikawa cells” value in the assay on Ishikawa cells is recorded as “significantly lower compared with the control”. Further, the “alkaline phosphatase activity / proliferation of Ishikawa cells” value in the assay with Ishikawa cells is “stimulated the alkaline phosphatase”. Also, on human ERα, the “agonistic/antagonistic activity for ERα” value is given as “antagonistic activity”. Also, the EC50 on human ERα (read-out: ERα antagonist EC50) is 1010 ± 30.5 nM; on human ERβ (read-out: ERβ antagonist EC50) it was above 5000 nM. Also, the “DNA level / DNA synthesis of MCF-7 cells” value in the assay on MCF-7 cells was “significantly lower compared with the control”.

With `Oc1cc(C=Cc2cc(O)c(O)c(O)c2)cc(O)c1O` [Compound M12, 3,3′,4,4′,5,5′-hexahydroxystilbene], in the assay with Ishikawa cells, the “alkaline phosphatase activity of Ishikawa cells” value was “significantly lower compared with the control” and the “alkaline phosphatase activity / proliferation of Ishikawa cells” value is “stimulated the alkaline phosphatase”. Moreover, the “agonistic/antagonistic activity for ERα” value on human ERα is “antagonistic activity”. The EC50 on human ERα (read-out: ERα antagonist EC50) is 110 ± 15.5 nM. For the same compound, on human ERβ, the “agonistic/antagonistic activity for ERβ” value is reported as “did not show an antagonistic effect”. In addition, the 50% effective concentration (EC50) at human ERβ (read-out: ERβ antagonist EC50) was above 5000 nM.

As usually defined, the IC50 is the midpoint of a concentration-inhibition curve. `Oc1ccc(/C=C/c2cc(O)cc(O)c2)cc1` [resveratrol]: in the assay with Ishikawa cells, the “alkaline phosphatase activity of Ishikawa cells” value is recorded as “stimulated an increase in the level of the assessed markers”. The “proliferation of Ishikawa cells” value in the assay with Ishikawa cells (setting [4]) is recorded as “stimulated the proliferation”. Besides, on human ERα, the “agonistic/antagonistic activity for ERα” value was “agonistic activity”. Moreover, the EC50 on human ERα (read-out: ERα Agonist EC50) is 21.2 ± 2.2 nM; in assay [3], 5000 to 10000 nM. The “concentration range suppressing progesterone receptor (PR) mRNA levels” value in assay [1] is 5 to 15 µM. Further, the IC50 in assay [2] is 2300 nM. For the same compound, the “DNA level / DNA synthesis of MCF-7 cells” value in the assay on MCF-7 cells is recorded as “stimulated an increase in the level of the assessed markers”. Also, the “proliferation of MCF-7 cells” value in the assay on MCF-7 cells (setting [4]) is “stimulated the proliferation”.
